The values below come from ChEMBL document CHEMBL5512660, “Synthesis of LAVR-289, a new [(Z)-3-(acetoxymethyl)-4-(2,4-diaminopyrimidin-6-yl)oxy-but-2-enyl]phosphonic acid prodrug with pronounced antiviral activity against DNA viruses” (Eur J Med Chem, 2024).

The test system of one data set is Vaccinia virus. The data set can be described thus: Antiviral activity against Vaccinia virus […] infected in human HEL cells assessed as reduction in plaque formation measured after 3 days. In kind it is functional, organism-based. To be noted: Orthopoxvirus vaccinia, 72 h.
A short description of data set [1]: Cytostatic activity against human HEL cells assessed as reduction in cell growth measured after 24 hrs. Type of data set: toxicity, cell-based.
Data set [2] can be described thus: Cytotoxicity against human HEL cells assessed as microscopically detectable alterations in cell morphology measured after 24 hrs. Type of data set: toxicity, cell-based. The note with it: read-out: MCC50.
In data set [3] the test system is Cytomegalovirus. The data set can be described thus: Antiviral activity against human cytomegalovirus strain AD-169 infected in human HEL cells assessed as reduction in virus-induced cytopathic effect measured after 3 days. Type of data set: functional, organism-based. The note with it: Human betaherpesvirus 5, AD-169, HEL, 72 h. In general terms: Damage to the host cells serves as the signal in cytopathic effect assays.

The nature of data set [4]: Selectivity index, ratio of CC50 for human HEL cells to EC50 for Vaccinia virus […]. In kind it is toxicity. The note with it: read-out: Selectivity Index.
The subject of data set [5] is Human alphaherpesvirus 1. The data set can be described thus: Antiviral activity against thymidine-kinase deficient acyclovir-resistant human herpes virus type 1 infected in human HEL cells assessed as reduction in plaque formation measured after 3 days. Type of data set: functional, organism-based. The note with it: Human alphaherpesvirus 1, HEL, 72 h.
The subject of data set [6] is Human alphaherpesvirus 3. Nature of the data set: Antiviral activity against thymidine-kinase deficient acyclovir-resistant Varicella zoster virus strain YS/R infected in human HEL cells assessed as reduction in plaque formation measured after 3 days. To be noted: Human alphaherpesvirus 3, YS/R, 72 h. In kind it is functional, organism-based.
Data set [7] deals with Human alphaherpesvirus 3. Nature of the data set: Antiviral activity against thymidine-kinase expressing Varicella zoster virus wild type strain OKA infected in human HEL cells assessed as reduction in plaque formation measured after 3 days. In kind it is functional, organism-based. To be noted: Human alphaherpesvirus 3, OKA, 72 h.
The test system of data set [8] is Human alphaherpesvirus 3. The data set can be described thus: Antiviral activity against thymidine-kinase deficient acyclovir-resistant Varicella zoster virus strain 07/1 infected in human HEL cells assessed as reduction in plaque formation measured after 3 days. In kind it is functional, organism-based. To be noted: Human alphaherpesvirus 3, 07/1, HEL, 72 h.
Another data set concerns Human alphaherpesvirus 2. Nature of the data set: Antiviral activity against human herpes virus type 2 strain 07/1 infected in human HEL cells assessed as reduction in plaque formation measured after 3 days. To be noted: Human alphaherpesvirus 2, 07/1, HEL, 72 h. Type of data set: functional, organism-based.
Data set [9] deals with Human alphaherpesvirus 1. The data set can be described thus: Antiviral activity against thymidine-kinase expressing human herpes virus type 1 KOS infected in human HEL cells assessed as reduction in plaque formation measured after 3 days. In kind it is functional, organism-based. The note with it: Human alphaherpesvirus 1, KOS, 72 h.
Data set [10] concerns Cytomegalovirus. Nature of the data set: Antiviral activity against human cytomegalovirus strain Davis infected in human HEL cells assessed as reduction in virus-induced cytopathic effect measured after 3 days. Type of data set: functional, organism-based. The note with it: Human betaherpesvirus 5, Davis, 72 h.
The test system of data set [11] is Human alphaherpesvirus 3. Nature of the data set: Antiviral activity against thymidine-kinase expressing Varicella zoster virus wild type strain YS infected in human HEL cells assessed as reduction in plaque formation measured after 3 days. Type of data set: functional, organism-based. To be noted: Human alphaherpesvirus 3, YS, 72 h.
The nature of data set [12]: Selectivity index, ratio of CC50 for human HEL cells to EC50 for thymidine-kinase deficient acyclovir-resistant human herpes virus type 1. The note with it: read-out: Selectivity Index. Type of data set: toxicity.
The nature of data set [13]: Selectivity index, ratio of CC50 for human HEL cells to EC50 for thymidine-kinase deficient acyclovir-resistant Varicella zoster virus. Type of data set: toxicity. The note with it: read-out: Selectivity Index.

Some results are limits rather than exact numbers.

On to `Nc1ccn(C[C@@H](CO)OCP(=O)(O)O)c(=O)n1` [CIDOFOVIR ANHYDROUS], for which the EC50 is 29000 nM with Vaccinia virus, 730 nM with Cytomegalovirus [3] and 3800 nM in the data set with Human alphaherpesvirus 1 [5]. Besides, the CC50 at 24 h in [1] stood at 64000 nM. For the same compound, in [2], the MCC at 24 h was greater than 350 µM. For the same compound, in data set [4], the selectivity ratio stood at 2.
`Nc1nc2c(ncn2COCCO)c(=O)[nH]1` [ACYCLOVIR]: the half-maximal effective concentration (EC50) is 66000 nM in the data set on Human alphaherpesvirus 3 [6] and greater than 250000 nM in the data set with Vaccinia virus. The CC50 at 24 h in data set [1] amounted to 470000 nM. Moreover, the MCC at 24 h in data set [2] was greater than 300 µM.
Turning to `O=c1[nH]c(=O)n([C@H]2C[C@H](O)[C@@H](CO)O2)cc1/C=C/Br` [BRIVUDINE], the EC50 in the data set with Human alphaherpesvirus 3 [6] came to 85000 nM; in the data set with Vaccinia virus it was 5800 nM; in the data set with Human alphaherpesvirus 3 [7] it was 9 nM. Also, the 50% cytotoxic concentration (CC50) at 24 h in [1] is greater than 150000 nM. In addition, the MCC at 24 h in data set [2] is greater than 150 µM.
In the case of `CC(=O)OC/C(=C\CP(=O)(OCOC(=O)OC(C)C)OCOC(=O)OC(C)C)COc1cc(N)nc(N)n1`, the 50% effective concentration (EC50) with Vaccinia virus came to 4100 nM; with Human alphaherpesvirus 3 [8], 220 nM; in the data set on Human alphaherpesvirus 2, 350 nM; in the data set on Human alphaherpesvirus 3 [7], 90 nM; in the data set with Human alphaherpesvirus 1 [9], 600 nM; with Human alphaherpesvirus 1 [5] it was 400 nM. In addition, the 50% cytotoxic concentration (CC50) at 24 h in [1] is 15400 nM. For the same compound, the MCC at 24 h in [2] is greater than 100 µM.
Regarding `CC(C)OC(=O)OCOP(=O)(C/C=C/COc1cc(N)nc(N)n1)OCOC(=O)OC(C)C`, the half-maximal effective concentration (EC50) in the data set on Cytomegalovirus [10] amounted to 36600 nM; in the data set with Human alphaherpesvirus 3 [8], 1250 nM; in the data set on Cytomegalovirus [3] it was 44700 nM; in the data set with Human alphaherpesvirus 2 it was 1800 nM; with Human alphaherpesvirus 3 [7], 860 nM; in the data set on Human alphaherpesvirus 1 [9], 3750 nM. Further, the EC50 in the data set with Human alphaherpesvirus 1 [5] stood at 5750 nM. Moreover, in data set [1], the CC50 at 24 h is greater than 100000 nM. Besides, the MCC at 24 h in [2] is greater than 100 µM.
`Nc1nc2c(ncn2COC(CO)CO)c(=O)[nH]1` [GANCICLOVIR]: the values for the EC50 in the data set with Vaccinia virus, in the data set with Cytomegalovirus [3] and with Human alphaherpesvirus 2 were greater than 100000 nM, 7500 nM and 60 nM, respectively. In addition, in data set [1], the 50% cytotoxic concentration (CC50) at 24 h was 130000 nM. The MCC at 24 h in [2] is greater than 350 µM.
`CC(=O)OCC(=CCP(=O)(OCOC(=O)C(C)(C)C)OCOC(=O)C(C)(C)C)COc1cc(N)nc(N)n1`: the EC50 came to 180 nM in the data set on Human alphaherpesvirus 3 [6]; 4060 nM with Cytomegalovirus [10]; 2900 nM in the data set with Vaccinia virus; 120 nM in the data set with Human alphaherpesvirus 3 [8]; 8560 nM with Cytomegalovirus [3]; 1100 nM in the data set on Human alphaherpesvirus 2. The EC50 stood at 140 nM with Human alphaherpesvirus 3 [7], 600 nM in the data set on Human alphaherpesvirus 1 [9], 600 nM with Human alphaherpesvirus 1 [5] and 360 nM in the data set with Human alphaherpesvirus 3 [11]. Moreover, the CC50 at 24 h in [1] came to 2030 nM. Moreover, the MCC at 24 h in data set [2] was 100 µM.
`CC(C)(C)C(=O)OCOP(=O)(C/C=C/COc1cc(N)nc(N)n1)OCOC(=O)C(C)(C)C`: the concentration giving a half-maximal response (EC50) in the data set with Human alphaherpesvirus 3 [6] stood at 1700 nM; in the data set on Cytomegalovirus [10] it was 44700 nM; in the data set with Vaccinia virus it was 32500 nM; with Human alphaherpesvirus 3 [8], 1400 nM; with Cytomegalovirus [3], 44700 nM; with Human alphaherpesvirus 2, 13400 nM. Further, the EC50 in the data set on Human alphaherpesvirus 3 [7] came out at 800 nM; in the data set on Human alphaherpesvirus 1 [9], 13400 nM; in the data set on Human alphaherpesvirus 1 [5] it was 13400 nM; in the data set with Human alphaherpesvirus 3 [11] it was 2400 nM. Besides, in data set [1], the 50% cytotoxic concentration (CC50) at 24 h came out at 5100 nM. Also, in [2], the MCC at 24 h was greater than 100 µM.
As to `CCCCCCCCCCCCCCCCOCCCOP(=O)(C/C=C(\COC(C)=O)COc1cc(N)nc(N)n1)OCOC(=O)OC(C)C` (configuration not stated), the concentration giving a half-maximal response (EC50) is 50 nM in the data set with Vaccinia virus; 18 nM with Human alphaherpesvirus 3 [8]; 21 nM in the data set with Cytomegalovirus [3]; 15 nM in the data set with Human alphaherpesvirus 2; 4 nM in the data set with Human alphaherpesvirus 3 [7]; 430 nM in the data set on Human alphaherpesvirus 1 [9]. Further, in the data set on Human alphaherpesvirus 1 [5], the EC50 was found to be 9 nM. In addition, in data set [1], the CC50 at 24 h is 2320 nM. In data set [2], the MCC at 24 h is 100 µM. For the same compound, the selectivity ratio came out at 46 in data set [4], 273 in data set [12] and 129 in [13].
For the compound `CCCCCCCCCCCCCCCCOCCCOP(=O)(C/C=C/COc1cc(N)nc(N)n1)OCOC(=O)OC(C)C` (configuration not stated), the EC50 with Cytomegalovirus [10] was determined as 7260 nM; with Human alphaherpesvirus 3 [8] it was 240 nM; with Cytomegalovirus [3], 7080 nM; in the data set with Human alphaherpesvirus 2 it was 39000 nM; with Human alphaherpesvirus 3 [7] it was 180 nM; in the data set with Human alphaherpesvirus 1 [9], 39000 nM. In addition, the EC50 in the data set with Human alphaherpesvirus 1 [5] is 42000 nM. Besides, the CC50 at 24 h in [1] amounted to 14500 nM. In [2], the MCC at 24 h stood at 100 µM.

What is called EC50 is the concentration giving half of the maximal effect. What is called CC50 is the concentration giving 50% cytotoxicity.
